Data on ten molecules can be found in US4968691A (priority 1986, dated 1990).

Test [1] addresses muscarinic receptors. The test is described as follows: Radio ligand binding: displacement of 3H-Oxotremorine-M (muscarinic agonist) from rat cerebral cortex membranes. Also on record: species or system Hooded Lister rats. The following applies: displacement of 2 nM 3H-OXO-M, 2 mM magnesium chloride, 37° C., 30 min, tested as oxalate salts.
Test [2] has as its target muscarinic receptors. The format is binding, Hooded Lister rats. The note with it: displacement of 0.27 nM 3H-QNB; rat cerebral cortex; 37° C., 30 min; tested as oxalate salts.
The conditions of test [3]: Lambrecht and Mutschler, Arzneim. forsh. 24 (11) 1725, 1974; cited from earlier work.

Read-outs that look alike come from different tables or passages of the source.

Broadly, the IC50 is the concentration at which inhibition is half-maximal.

In the case of `Cc1noc(C2CN3CCC2CC3)n1` (racemic) [E1, (±) 3-(3-Methyl-1,2,4-oxadiazol-5-yl)-1-azabicyclo [2.2.2]octane], the figures for the IC50 at muscarinic receptors [1] and at muscarinic receptors [2] were 15 nM and 1840 nM, respectively.
Take `Cc1nc(C2CN3CCC2CC3)no1` (racemic) [E2, (±) 3-(5-Methyl-1,2,4-oxadiazol-3-yl)-1-azabicyclo [2.2.2]octane]: the IC50 at muscarinic receptors [1] was determined as 1100 nM; at muscarinic receptors [2] it was 17000 nM.
As to `Cc1nnc(C2CN3CCC2CC3)o1` (racemic) [E4, (±) 3-(5-Methyl-1,3,4-oxadiazol-2-yl)-1-azabicyclo [2.2.2]octane], the IC50 at muscarinic receptors [1] came to 1000 nM; on muscarinic receptors [2] it was 15000 nM.
As for `c1coc(C2CN3CCC2CC3)n1` (racemic) [E5, (±) 3-(1,3-Oxazol-2-yl)-1-azabicyclo[2.2.2]octane], the 50% inhibitory concentration (IC50) worked out at 630 nM on muscarinic receptors [1] and 27000 nM on muscarinic receptors [2].
Taken in the same sequence, the figures for `c1nnc(C2CN3CCC2CC3)o1` (racemic) [E8, (±) 3-(1,3,4-Oxadiazol-2-y.)-1-azabicyclo[2.2.2]octane] were 2800 nM and 63000 nM.
Taken in the same sequence, the figures for `Cc1noc([C@H]2C[C@@H]3CCN(C3)C2)n1` (relative stereo) [E3, (±) exo-3-(3-Methyl-1,2,4-oxadiazol-5-yl)-1-azabicyclo [3.2.1]octane] were 25 nM and 1840 nM.
As to `Cc1noc([C@@H]2CN3CCC[C@@H]2C3)n1` (relative stereo) [E6, (±) exo-6-(3-Methyl-1,2,4-oxadiazol-5-yl)-1-azabicyclo [3.2.1]octane], the IC50 was 41 nM on muscarinic receptors [1] and 2300 nM on muscarinic receptors [2].
`c1coc([C@H]2C[C@@H]3CCCN(C3)C2)n1` (relative stereo) [E9, (±) exo-3-(1,3-Oxazol-2-yl 1-azabicyclo[3.3.1]nonane]: the IC50 on muscarinic receptors [1] was found to be 160 nM; on muscarinic receptors [2], 3100 nM.
Taken in the same sequence, the figures for `Cc1noc([C@@H]2CN3CC[C@@H]2C3)n1` (relative stereo) [E10, (±) exo-3-(3-Methyl-1,2,4-oxadiazol-5-yl)-1-azabicyclo [2.2.1]heptane] were 3.5 nM and 1100 nM.
As to `COC(=O)C1CN2CCC1CC2` (stereo not shown) [3-Methoxycarbonylquinuclidine], the cholinergic activity result in test [3] was “possess cholinergic activity”.
